From PubChem BioAssay (NCI)
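All cell lines were grown in 96-well plates and treated with compound for 48 hours. GI50 marks 50% less growth. TGI denotes the concentration required for complete inhibition of growth.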

Assays:
Assay in all cases: inhibition of tumour cell growth, NCI panel, 48 h
HCT-15 colon = system: HCT-15 colon
A498 renal = system: A498 renal
COLO 205 colon = system: COLO 205 colon
KM12 colon = system: KM12 colon
SK-MEL-2 melanoma = system: SK-MEL-2 melanoma
RPMI-8226 leukemia = system: RPMI-8226 leukemia
ACHN renal = system: ACHN renal
M14 melanoma = system: M14 melanoma
MALME-3M melanoma = system: MALME-3M melanoma
TK-10 renal = system: TK-10 renal
IGROV1 ovarian = system: IGROV1 ovarian
HT29 colon = system: HT29 colon
786-0 renal = system: 786-0 renal
HS 578T breast = system: HS 578T breast
MCF7 breast = system: MCF7 breast
CAKI-1 renal = system: CAKI-1 renal
U251 CNS = system: U251 CNS
DU-145 prostate = system: DU-145 prostate
SK-OV-3 ovarian = system: SK-OV-3 ovarian
CCRF-CEM leukemia = system: CCRF-CEM leukemia
SF-295 CNS = system: SF-295 CNS
A549 NSCLC = system: A549 NSCLC
UO-31 renal = system: UO-31 renal
NCI-H226 lung = system: NCI-H226 lung
RXF 393 renal = system: RXF 393 renal
UACC-257 melanoma = system: UACC-257 melanoma
PC-3 prostate = system: PC-3 prostate
OVCAR-4 ovarian = system: OVCAR-4 ovarian
MOLT-4 leukemia = system: MOLT-4 leukemia
MDA-MB-231 breast = system: MDA-MB-231 breast
HOP-92 NSCLC = system: HOP-92 NSCLC
MDA-MB-435 = system: MDA-MB-435
OVCAR-5 ovarian = system: OVCAR-5 ovarian
NCI-H522 lung = system: NCI-H522 lung
SNB-19 CNS = system: SNB-19 CNS
UACC-62 melanoma = system: UACC-62 melanoma
OVCAR-8 ovarian = system: OVCAR-8 ovarian
HCC-2998 colon = system: HCC-2998 colon
SF-268 CNS = system: SF-268 CNS
K-562 leukemia = system: K-562 leukemia
SK-MEL-5 melanoma = system: SK-MEL-5 melanoma
HCT-116 colon = system: HCT-116 colon
HOP-62 NSCLC = system: HOP-62 NSCLC
EKVX NSCLC = system: EKVX NSCLC
SNB-75 CNS = system: SNB-75 CNS
NCI-H460 lung = system: NCI-H460 lung
SN12C renal = system: SN12C renal
LOX IMVI melanoma = system: LOX IMVI melanoma
T-47D breast = system: T-47D breast
SF-539 CNS = system: SF-539 CNS
OVCAR-3 ovarian = system: OVCAR-3 ovarian
NCI/ADR-RES ovarian = system: NCI/ADR-RES ovarian
SR leukemia = system: SR leukemia
SW-620 colon = system: SW-620 colon
SK-MEL-28 melanoma = system: SK-MEL-28 melanoma
HL-60(TB) leukemia = system: HL-60(TB) leukemia
NCI-H23 lung = system: NCI-H23 lung
BT-549 breast = system: BT-549 breast
MDA-N = system: MDA-N

C=CC(=O)Nc1cc(Nc2ncc(C(=O)OC(C)C)c(-c3cn(C)c4ccccc34)n2)c(OC)cc1N(C)CCN(C)C
GI50 (HCT-15 colon): 1.79 µM
TGI (HCT-15 colon): 5.05 µM
GI50 (A498 renal): 0.483 µM
TGI (A498 renal): 7.63 µM
GI50 (COLO 205 colon): 3.2 µM
TGI (COLO 205 colon): > 22.2 µM
GI50 (KM12 colon): 5.85 µM
TGI (KM12 colon): 13.9 µM
GI50 (SK-MEL-2 melanoma): 4.3 µM
TGI (SK-MEL-2 melanoma): 11 µM
GI50 (RPMI-8226 leukemia): 2.86 µM
TGI (RPMI-8226 leukemia): 14.6 µM
GI50 (ACHN renal): 0.0218 µM
TGI (ACHN renal): 12.1 µM
GI50 (M14 melanoma): 1.87 µM
TGI (M14 melanoma): 3.74 µM
GI50 (MALME-3M melanoma): 1.69 µM
TGI (MALME-3M melanoma): 3.24 µM
GI50 (TK-10 renal): < 0.01 µM
TGI (TK-10 renal): 5.19 µM
GI50 (IGROV1 ovarian): 0.399 µM
TGI (IGROV1 ovarian): 3.12 µM
GI50 (HT29 colon): 2.32 µM
TGI (HT29 colon): 5.99 µM
GI50 (786-0 renal): 3.15 µM
TGI (786-0 renal): 12.9 µM
GI50 (HS 578T breast): 6.43 µM
TGI (HS 578T breast): 21.5 µM
GI50 (MCF7 breast): 2.12 µM
TGI (MCF7 breast): 7.62 µM
GI50 (CAKI-1 renal): 1.32 µM
TGI (CAKI-1 renal): 9.32 µM
GI50 (U251 CNS): 3.98 µM
TGI (U251 CNS): 12.2 µM
GI50 (DU-145 prostate): 1.19 µM
TGI (DU-145 prostate): 17.6 µM
GI50 (SK-OV-3 ovarian): < 0.01 µM
TGI (SK-OV-3 ovarian): 16.7 µM
GI50 (CCRF-CEM leukemia): 3.18 µM
TGI (CCRF-CEM leukemia): 17.8 µM
GI50 (SF-295 CNS): 5.11 µM
TGI (SF-295 CNS): 10.6 µM
GI50 (A549 NSCLC): 2.89 µM
TGI (A549 NSCLC): 21.5 µM
GI50 (UO-31 renal): 0.442 µM
TGI (UO-31 renal): 12.9 µM
GI50 (NCI-H226 lung): 7.45 µM
TGI (NCI-H226 lung): 29.5 µM
GI50 (RXF 393 renal): 1.86 µM
TGI (RXF 393 renal): 6.62 µM
GI50 (UACC-257 melanoma): 1.8 µM
TGI (UACC-257 melanoma): 3.71 µM
GI50 (PC-3 prostate): 3.19 µM
TGI (PC-3 prostate): 9.54 µM
GI50 (OVCAR-4 ovarian): 4.97 µM
TGI (OVCAR-4 ovarian): 21.3 µM
GI50 (MOLT-4 leukemia): 2.9 µM
TGI (MOLT-4 leukemia): 11.4 µM
GI50 (MDA-MB-231 breast): 2.66 µM
TGI (MDA-MB-231 breast): 8.26 µM
GI50 (HOP-92 NSCLC): 2.02 µM
TGI (HOP-92 NSCLC): 10.1 µM
GI50 (MDA-MB-435): 3 µM
TGI (MDA-MB-435): 7.6 µM
GI50 (OVCAR-5 ovarian): 2.72 µM
TGI (OVCAR-5 ovarian): 18.1 µM
GI50 (NCI-H522 lung): 0.02 µM
TGI (NCI-H522 lung): 5.74 µM
GI50 (SNB-19 CNS): 6.8 µM
TGI (SNB-19 CNS): 22.4 µM
GI50 (UACC-62 melanoma): 2.34 µM
TGI (UACC-62 melanoma): 7 µM
GI50 (OVCAR-8 ovarian): 4.85 µM
TGI (OVCAR-8 ovarian): 25 µM
GI50 (HCC-2998 colon): 2.3 µM
TGI (HCC-2998 colon): 7.75 µM
GI50 (SF-268 CNS): 6.88 µM
TGI (SF-268 CNS): 24.1 µM
GI50 (K-562 leukemia): 2.22 µM
TGI (K-562 leukemia): > 23.4 µM
GI50 (SK-MEL-5 melanoma): 1.78 µM
TGI (SK-MEL-5 melanoma): 3.21 µM
GI50 (HCT-116 colon): 3.46 µM
TGI (HCT-116 colon): 20 µM
GI50 (HOP-62 NSCLC): 7.13 µM
TGI (HOP-62 NSCLC): 22.8 µM
GI50 (EKVX NSCLC): 0.0181 µM
TGI (EKVX NSCLC): 13.6 µM
GI50 (SNB-75 CNS): 1.93 µM
TGI (SNB-75 CNS): 10.3 µM
GI50 (NCI-H460 lung): 6.57 µM
TGI (NCI-H460 lung): 14.8 µM
GI50 (SN12C renal): 3.02 µM
TGI (SN12C renal): 15.4 µM
GI50 (LOX IMVI melanoma): 1.76 µM
TGI (LOX IMVI melanoma): 3.53 µM
GI50 (T-47D breast): 0.396 µM
TGI (T-47D breast): 14 µM
GI50 (SF-539 CNS): 3.1 µM
TGI (SF-539 CNS): 9.45 µM
GI50 (OVCAR-3 ovarian): 2.58 µM
TGI (OVCAR-3 ovarian): 12.3 µM
GI50 (NCI/ADR-RES ovarian): 2.3 µM
TGI (NCI/ADR-RES ovarian): 17.7 µM
GI50 (SR leukemia): 3.04 µM
TGI (SR leukemia): > 33.7 µM
GI50 (SW-620 colon): 3.25 µM
TGI (SW-620 colon): 8.88 µM
GI50 (SK-MEL-28 melanoma): 2.43 µM
TGI (SK-MEL-28 melanoma): 6.55 µM
GI50 (HL-60(TB) leukemia): 1.47 µM
TGI (HL-60(TB) leukemia): 3.7 µM
GI50 (NCI-H23 lung): 9.02 µM
TGI (NCI-H23 lung): 25.3 µM
GI50 (BT-549 breast): 7.41 µM
TGI (BT-549 breast): 21.4 µM

C[C@]12CCC(O)CC1=CC[C@@H]1[C@@H]2CC[C@]2(C)C(=O)[C@H](n3ccnc3)C[C@@H]12 (stereo not given in full)
TGI (HCT-15 colon): > 100 µM
TGI (A498 renal): > 100 µM
TGI (COLO 205 colon): 71 µM
TGI (KM12 colon): > 100 µM
TGI (SK-MEL-2 melanoma): > 100 µM
TGI (RPMI-8226 leukemia): > 100 µM
TGI (ACHN renal): > 100 µM
TGI (M14 melanoma): > 100 µM
TGI (MALME-3M melanoma): > 100 µM
TGI (TK-10 renal): > 100 µM
TGI (IGROV1 ovarian): > 100 µM
TGI (HT29 colon): > 100 µM
TGI (786-0 renal): > 100 µM
TGI (HS 578T breast): > 100 µM
TGI (MCF7 breast): > 100 µM
TGI (CAKI-1 renal): > 100 µM
TGI (U251 CNS): > 100 µM
TGI (MDA-N): > 100 µM
TGI (DU-145 prostate): > 100 µM
TGI (CCRF-CEM leukemia): > 100 µM
TGI (SF-295 CNS): > 100 µM
TGI (A549 NSCLC): > 100 µM
TGI (UO-31 renal): > 100 µM
TGI (NCI-H226 lung): > 100 µM
TGI (RXF 393 renal): > 100 µM
TGI (UACC-257 melanoma): > 100 µM
TGI (PC-3 prostate): > 100 µM
TGI (OVCAR-4 ovarian): > 100 µM
TGI (MOLT-4 leukemia): 53.1 µM
TGI (MDA-MB-231 breast): > 100 µM
TGI (HOP-92 NSCLC): > 100 µM
TGI (MDA-MB-435): > 100 µM
TGI (OVCAR-5 ovarian): > 100 µM
TGI (NCI-H522 lung): > 100 µM
TGI (SNB-19 CNS): > 100 µM
TGI (UACC-62 melanoma): > 100 µM
TGI (OVCAR-8 ovarian): > 100 µM
TGI (SF-268 CNS): > 100 µM
TGI (K-562 leukemia): > 100 µM
TGI (SK-MEL-5 melanoma): 45.2 µM
TGI (HCT-116 colon): > 100 µM
TGI (EKVX NSCLC): > 100 µM
TGI (SNB-75 CNS): > 100 µM
TGI (NCI-H460 lung): > 100 µM
TGI (SN12C renal): > 100 µM
TGI (LOX IMVI melanoma): > 100 µM
TGI (SF-539 CNS): > 100 µM
TGI (OVCAR-3 ovarian): > 100 µM
TGI (NCI/ADR-RES ovarian): > 100 µM
TGI (SR leukemia): > 100 µM
TGI (SW-620 colon): > 100 µM
TGI (SK-MEL-28 melanoma): > 100 µM
TGI (HL-60(TB) leukemia): 40.7 µM
TGI (NCI-H23 lung): > 100 µM

Nc1c2c(nc3ccccc13)-c1ccccc1CC2
TGI (HCT-15 colon): 17.5 µM
TGI (A498 renal): 16.2 µM
TGI (COLO 205 colon): 15.8 µM
TGI (SK-MEL-2 melanoma): 23 µM
TGI (RPMI-8226 leukemia): 21.7 µM
TGI (ACHN renal): 14.1 µM
TGI (MALME-3M melanoma): 20.8 µM
TGI (TK-10 renal): 14.7 µM
TGI (IGROV1 ovarian): 19.8 µM
TGI (786-0 renal): 14.1 µM
TGI (HS 578T breast): 40.5 µM
TGI (MCF7 breast): 13.8 µM
TGI (U251 CNS): 15.8 µM
TGI (MDA-N): 16 µM
TGI (CCRF-CEM leukemia): 18.9 µM
TGI (NCI-H226 lung): 31.5 µM
TGI (UACC-257 melanoma): 9.09 µM
TGI (PC-3 prostate): 14.4 µM
TGI (MOLT-4 leukemia): 9.23 µM
TGI (MDA-MB-231 breast): 17.8 µM
TGI (HOP-92 NSCLC): 21.9 µM
TGI (NCI-H522 lung): 24.5 µM
TGI (UACC-62 melanoma): 21.4 µM
TGI (OVCAR-8 ovarian): 18 µM
TGI (HCC-2998 colon): 2.81 µM
TGI (SF-268 CNS): 22.3 µM
TGI (K-562 leukemia): 17.3 µM
TGI (SK-MEL-5 melanoma): 15.3 µM
TGI (HCT-116 colon): 13.5 µM
TGI (NCI-H460 lung): 6.22 µM
TGI (SN12C renal): 16.9 µM
TGI (LOX IMVI melanoma): 15.5 µM
TGI (SF-539 CNS): 15.1 µM
TGI (NCI/ADR-RES ovarian): 27.8 µM
TGI (SR leukemia): 9.31 µM
TGI (SW-620 colon): 14.8 µM
TGI (SK-MEL-28 melanoma): 22.8 µM
TGI (HL-60(TB) leukemia): 14.5 µM
TGI (NCI-H23 lung): 27.2 µM
TGI (BT-549 breast): 27 µM
